Inhibition and IC50 data for 19 compounds are collected here from US6153634A, “4,5-azolo-oxindoles” (Hoffmann-La Roche Inc., priority 1999, dated 2000).

The target in one test is T1, human Cyclin E/CDK2 (Homo sapiens, UniProt P24941).
T1 construct: made in house; host or cells: insect cells
The test can be described thus: CDK2 FlashPlate Assay (inhibition of Rb phosphorylation). It is filed as biochemical. The following applies: Cyclin E/CDK2, Rb-coated FlashPlates; for inhibition at 0.5 µM: Concentration 0.5 μM. The protocol: To determine inhibition of CDK2 activity, purified recombinant retinoblastoma (Rb) protein was coated on 96 well FlashPlates (New England Nuclear, Boston, Mass.). Rb is a natural substrate for phosphorylation by CDK2 (Herwig and Strauss Eurr. J. Biochem., Vol. 246 (1997) pp. 581-601 and references therein). Recombinant active human Cyclin E/CDK2 complexes were partially purified from extracts of insect cells. The active Cyclin E/CDK2 was added to the Rb-coated FlashPlates along with ^33 P-ATP and dilutions of test compounds. Plates were incubated for 25 minutes at room temperature with shaking, then washed and counted in the Topcount scintillation counter (Packard Instrument Co., Downers Grove, Ill.). Dilutions of test compounds were tested in duplicate in each assay. The percent inhibition of Rb phosphorylation, which is a measure of the inhibition of CDK2 activity, was determined according to the following formula: [formula] where "test compound" refers to the average counts per minute of the test duplicates, "nonspecific" refers to the average counts per minute when no Cyclin E/CDK2 was added, and "total" refers to the average counts per minute when no compound was added.

The subject of the next test is MDA-MB-435. The test can be described thus: Cell-based antiproliferative (MTT) assay, MDA-MB-435 breast carcinoma. The following applies: Homo sapiens, MDA-MB-435, 120 h, cell line MDA-MB435 (breast), 5 days post addition, one experiment mostly, average where repeated. The protocol: The estrogen receptor negative epithelial breast carcinoma line (MDA-MB-435) was purchased from American Type Cell Culture Collection (ATCC; Rockville, Md.) and was grown in the medium recommended by ATCC. For analysis of the effect of the test compounds on growth of these cells, the cells were plated at 2000 cells per well in a 96-well tissue culture plate, and were incubated overnight at 37° C. with 5% CO2. The next day, the test compounds were dissolved in 100% dimethyl sulfoxide (DMSO) to yield a 10 mM stock solution. Each compound was diluted with sterile medium to 1 mM in a sufficient quantity to yield a final concentration of 120 μM. The compounds were then serially diluted in medium with 1.2% DMSO. […] The plates were returned to the incubator, and 5 days post addition of test compound, were analyzed as described below. […] Absorbencies were read in a microtiter plate reader (Molecular Dynamics) at a wavelength of 570 nm with a 650 nm reference. Percent inhibition was calculated by subtracting the absorbance of the blank (no cell) wells from all wells, then subtracting the division of the average absorbance of each test duplicate by the average of the controls from 1.00. Inhibitory concentrations (IC50) were determined from the linear regression of a plot of the logarithm of the concentration versus the percent inhibition.

For `COc1cc[nH]c1/C=C1\C(=O)Nc2ccc3[nH]c(Nc4cccc(C(C)=O)c4)nc3c21` [BB, (Z)-2-[N-(3-Acetylphenyl)amino]-8-[(3-methoxy-1H-pyrrol-2-yl)methylene]-3,6,7,8-tetrahydro-pyrrolo[3,2-e]benzimidazol-7-one], at human Cyclin E/CDK2, the inhibition at 0.5 µM is less than 50%.

At human Cyclin E/CDK2, `CCOC(=O)c1ccc(Nc2nc3c4c(ccc3[nH]2)NC(=O)/C4=C\c2[nH]ccc2OC)cc1` [CC, (Z)-4-[[8-[(3-Methoxy-1H-pyrrol-2-yl)methylene]-7-oxo-3,6,7,8-tetrahydro-imidazo[4,5-e]indol-2-yl]amino]-benzoic acid ethyl ester] registered an inhibition at 0.5 µM of less than 50%.

For the compound `COC(=O)c1ccc(Nc2nc3c4c(ccc3[nH]2)NC(=O)/C4=C\c2[nH]ccc2OC)cc1` [EE, (Z)-4-[[8-[(3-Methoxy-1H-pyrrol-2-yl)methylene]-7-oxo-3,6,7,8-tetrahydro-imidazo[4,5-e]indol-2-yl]amino]-benzoic acid methyl ester], the inhibition at 0.5 µM at human Cyclin E/CDK2 was less than 50%.

Consider `COc1cc[nH]c1/C=C1\C(=O)Nc2ccc3[nH]c(NCc4ccc(F)cc4)nc3c21` [FF, (Z)-2-[N-[(4-Fluorophenyl)methyl]amino]-8-[(3-methoxy-1H-pyrrol-2-yl)methylene]-3,6,7,8-tetrahydro-pyrrolo[3,2-e]benzimidazol-7-one], for which, at human Cyclin E/CDK2, the inhibition at 0.5 µM was more than 50%.

With `COc1ccc(CCNc2nc3c4c(ccc3[nH]2)NC(=O)/C4=C\c2[nH]ccc2OC)cc1OC` [GG, (Z)-2-[N-[2-(3,4-Dimethoxyphenyl)ethyl]amino]-8-[(3-methoxy-1H-pyrrol-2-yl)methylene]-3,6,7,8-tetrahydro-pyrrolo[3,2-e]benzimidazol-7-one], at human Cyclin E/CDK2, the inhibition at 0.5 µM is less than 50%.

On to `COc1ccccc1Nc1nc2c3c(ccc2[nH]1)NC(=O)/C3=C\c1[nH]ccc1OC` [II, (Z)-2-[N-(2-Methoxyphenyl)amino]-8-[(3-methoxy-1H-pyrrol-2-yl)methylene]-3,6,7,8-tetrahydro-pyrrolo[3,2-e]benzimidazol-7-one], for which the inhibition at 0.5 µM on human Cyclin E/CDK2 is less than 50%.

On human Cyclin E/CDK2, `COc1cc[nH]c1/C=C1\C(=O)Nc2ccc3[nH]c(NCCCCc4ccccc4)nc3c21` [JJ, (Z)-8-[(3-Methoxy-1H-pyrrol-2-yl)methylene]-2-[N-(4-phenylbutyl)amino]-3,6,7,8-tetrahydro-pyrrolo[3,2-e]benzimidazol-7-one] came in with an inhibition at 0.5 µM of less than 50%.

For the compound `CCOC(=O)CCCNc1nc2c3c(ccc2[nH]1)NC(=O)/C3=C\c1[nH]ccc1OC` [LL, (Z)-4-[[8-[(3-Methoxy-1H-pyrrol-2-yl)methylene]-7-oxo-3,6,7,8-tetrahydro-imidazo[4,5-e]indol-2-yl]amino]-butanoic acid ethyl ester], the inhibition at 0.5 µM against human Cyclin E/CDK2 is more than 50%.

For `COc1cc[nH]c1/C=C1\C(=O)Nc2ccc([N+](=O)[O-])c(N=[N+]=[N-])c21` [M, (Z)-4-Azido-1,3-dihydro-3-[(3-methoxy-1H-pyrrol-2-yl)methylene]-5-nitro-2H-indol-2-one], the inhibition at 0.5 µM against human Cyclin E/CDK2 was more than 50%.

`COc1cc[nH]c1/C=C1\C(=O)Nc2ccc3[nH]c(Nc4cccc5ccccc45)nc3c21` [MM, (Z)-8-[(3-Methoxy-1H-pyrrol-2-yl)methylene]-2-[N-(1-naphthyl)amino]-3,6,7,8-tetrahydro-pyrrolo[3,2-e]benzimidazol-7-one]: on human Cyclin E/CDK2, the inhibition at 0.5 µM is more than 50%.

Compound `COc1cc[nH]c1/C=C1\C(=O)Nc2ccc3[nH]c(NCCN4CCCCC4)nc3c21` [NN, (Z)-8-[(3-Methoxy-1H-pyrrol-2-yl)methylene]-2-[N-[2-(N-piperidinyl)ethyl]-amino]-3,6,7,8-tetrahydro-pyrrolo[3,2-e]benzimidazol-7-one] registered an inhibition at 0.5 µM on human Cyclin E/CDK2 of more than 50%.

For `COc1cc[nH]c1/C=C1\C(=O)Nc2ccc3[nH]c(-c4ccc(C(=O)O)cc4)nc3c21` [R], on human Cyclin E/CDK2 (33P-ATP, 25 min room temperature), the IC50 is less than 3.5 µM.

In the test on MDA-MB-435, `Cc1nc[nH]c1/C=C1\C(=O)Nc2ccc3[nH]cnc3c21` [SS, (Z)-8-[(4-Methyl-1H-imidazol-5-yl)methylene]-3,6,7,8-tetrahydro-pyrrolo[3,2-e]benzimidazol-7-one] yielded an IC50 of less than 3.5 µM.

In the case of `COc1cc[nH]c1/C=C1\C(=O)Nc2ccc3[nH]c(NCc4ccc5c(c4)OCO5)nc3c21` [VV, (Z)-2-[N-(1,3-Benzodioxol-5-yl)methylamino]-8-[(3-methoxy-1H-pyrrol-2-yl)methylene]-3,6,7,8-tetrahydro-pyrrolo[3,2-e]benzimidazol-7-one], the inhibition at 0.5 µM at human Cyclin E/CDK2 is less than 50%.

The compound `COc1cc[nH]c1/C=C1\C(=O)Nc2ccc3[nH]c(NCc4cccc5ccccc45)nc3c21` [WW, (Z)-8-[(3-Methoxy-1H-pyrrol-2-yl)methylene]-2-[N-(1-naphthalenyl)methylamino]-3,6,7,8-tetrahydro-pyrrolo[3,2-e]benzimidazol-7-one] showed an inhibition at 0.5 µM at human Cyclin E/CDK2 of less than 50%.

For `COc1cc[nH]c1/C=C1\C(=O)Nc2ccc3[nH]c(NCCCc4ccccc4)nc3c21` [XX, (Z)-8-[(3-Methoxy-1H-pyrrol-2-yl)methylene]-2-[N-(3-phenylpropyl)amino]-3,6,7,8-tetrahydro-pyrrolo[3,2-e]benzimidazol-7-one], the inhibition at 0.5 µM against human Cyclin E/CDK2 is less than 50%.

The compound `COc1ccc(Nc2nc3c4c(ccc3[nH]2)NC(=O)/C4=C\c2[nH]ccc2OC)cc1OC` [Y, (Z)-2-[N-(3,4-Dimethoxyphenyl)amino]-8-[(3-methoxy-1H-pyrrol-2-yl)methylene]-3,6,7,8-tetrahydro-pyrrolo[3,2-e]benzimidazol-7-one] returned an inhibition at 0.5 µM at human Cyclin E/CDK2 of less than 50%.

In turn, `COc1cc[nH]c1/C=C1\C(=O)Nc2ccc3[nH]c(Nc4ccc5c(c4)CCC5)nc3c21` [YY, (Z)-2-[N-(2,3-Dihydro-1H-inden-5-yl)amino]-8-[(3-methoxy-1H-pyrrol-2-yl)methylene]-3,6,7,8-tetrahydro-pyrrolo[3,2-e]benzimidazol-7-one] came in with an inhibition at 0.5 µM at human Cyclin E/CDK2 of less than 50%.

As to `COc1ccc(Nc2nc3c4c(ccc3[nH]2)NC(=O)/C4=C\c2[nH]ccc2OC)cc1` [Z, (Z)-2-[N-(4-Methoxyphenyl)amino]-8-[(3-methoxy-1H-pyrrol-2-yl)methylene]-3,6,7,8-tetrahydro-pyrrolo[3,2-e]benzimidazol-7-one], on human Cyclin E/CDK2, the inhibition at 0.5 µM is less than 50%.
